Experimental data as given in patent US11401264B2, “Heterocyclic compound” (Orizuru Therapeutics, Inc., priority 2018, dated 2022).

Tested on: cardiomyocytes from double knock-in human iPS cell lines (mCherry at TNNI3 locus)
Assay: Experimental Example 1: mCherry (TNNI3 reporter) immunostaining measured by high contents screening
Type: cell-based
Parameters: key to average fluorescent intensity (at 30 μM): —: The symbol in Table 2 means that the average fluorescent intensity cannot be evaluated due to cell decrease
Details: read on 8th day, Alexa 647 anti-mCherry, control well 797
How it was run: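 Double knock-in iPS lines (EmGFP at TNNI1, mCherry at TNNI3) differentiated as embryoid bodies in stirred bioreactor at 37 °C, 5% O2: BMP4/activin A/bFGF, then VEGF, IWP-3, dorsomorphin, SB431542, then VEGF alone. On day 14, dissociated cells seeded at 1.0×10^4 cells/well on iMatrix-511 in AK02-based cardiomyocyte medium.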

O=C1c2ccc(N3CCOCC3)cc2CN1c1ccc2[nH]c(-c3ccc(Br)cc3)nc2c1 [Example 8, 2-(2-(4-bromophenyl)-1H-benzimidazol-5-yl)-5-(morpholin-4-yl)isoindolin-1-one]
average fluorescent intensity (at 1 μM) (test compound 1 μM added on 3rd and 6th culture days): 985
average fluorescent intensity (at 30 μM) (test compound 30 μM added on 3rd and 6th culture days): —
